Assay results published in patent publication US20180344199A1, “OPTIMIZED PLACEMENT OF CANNULA FOR DELIVERY OF THERAPEUTICS TO THE BRAIN” (The Regents of the University of California, priority 2010, published 2018).
Several values for one entry are separate records, joined by “and”; a condition that tells them apart may be missing. Identical values can stand only once.

Legend:
[1] = CED infusion of gadoteridol into NHP brainstem, real-time MRI distribution; format: in vivo, Cynomolgus monkeys and Rhesus macaques
[2] = CED infusion of gadoteridol into NHP thalamus, real-time MRI distribution; format: in vivo, Cynomolgus monkeys and Rhesus macaques
[3] = CED co-infusion of AAV2 vectors and Gd into NHP thalamus, MRI volume of Gd distribution; settings: co-infused with AAV2-GDNF, Vi ~150 μL, n=5, mean±SEM
[4] = CED infusion of GDL or free Gadoteridol into NHP putamen, real-time MRI distribution; format: in vivo, Rhesus macaques and Cynomolgus monkeys
Description: Thirteen normal adult NHP, including 11 Rhesus macaques (7 male and 4 female, aged from 8 to 18 years; mean age 11.9 years, weight 4-9.4 kg) and 2 Cynomolgus monkeys (one male and one female, age 7 years for both; weight 5 and 7 kg respectively) were the subjects in the present study. Experimentation was performed according to the National Institutes of Health guidelines and to the protocols approved by the Institutional Animal Care and Use Committee at the University of California San Francisco (San Francisco, Calif.) and at Valley Biosystems (Sacramento, Calif.). Thirteen animals received a total of 25 intracranial infusion of GDL (2 mM) or free Gadoteridol (2 mM, Prohance; Bracco Diagnostics, Princeton, N.J.) into the putamen. Infusions were performed by previously established CED techniques for NHP (Bankiewicz, Eberling et al. 2000). GDL were prepared as previously described (Fiandaca, Varenika et al. 2008) (Krauze, McKnight et al. 2005).
Primates received a baseline MRI before surgery to visualize anatomical landmarks and to generate stereotactic coordinates of the proposed target infusion sites for each animals. NHPs underwent neurosurgical procedures to position the MRI-compatible guide cannula over the putamen. Each customized guide cannula was cut to a specified length, stereotactically guided to its target through a burr-hole created in the skull, and secured to the skull by dental acrylic. The tops of the guide cannula assemblies were capped with stylet screws for simple access during the infusion procedure. Animals recovered for at least 2 weeks before initiation of infusion procedures. Animals were anesthetized with isoflurane (Aerrane; Ohmeda Pharmaceutical Products Division, Liberty Corner, N.J.) during real-time MRI acquisition. Each animal's head was placed in an MRI-compatible stereotactic frame, and a baseline MRI was performed. Vital signs, such as heart rate and PO2, were monitored throughout the procedure.
Briefly, the infusion system consisted of a fused silica reflux-resistant cannula (Fiandaca, Varenika et al. 2008) (Krauze, McKnight et al. 2005) that was connected to a loading line (containing GDL or free Gadoteridol), an infusion line with oil, and another infusion line with trypan blue solution. A 1-ml syringe (filled trypan blue solution) mounted onto a micro-infusion pump (BeeHive, Bioanalytical System, West Lafayette, Ind.), regulated the flow of fluid through the system. Based on MRI coordinates, the cannula was mounted onto a stereotactic holder and manually guided to the targeted region of the brain through the previously placed guide cannula. The length of each infusion cannula was measured to ensure that the distal tip extended 3 mm beyond the length of the respective guide. This created a stepped design at the tip of the cannula to maximize fluid distribution during CED procedures and minimize reflux along the cannula tract. We refer to this transition from fused silica tip to a fused silica sheath as the “step”, and all positioning data is derived from the position of this step because of its unambiguous visibility on MRI.
After securing placement of the infusion cannula, the CED procedures were initiated with real-time MRI data being acquired (real-time convective delivery, RCD). We used the same infusion parameters for every NHP infused throughout the study. Infusion rates were as follows: 0.1 μl/min was applied when lowering cannula to targeted area and increased at 10-min intervals to 0.2, 0.5, 0.8, 1.0, and 2.0 μl/min. Approximately 15 min after infusion, the cannula was withdrawn from the brain. Four animals received multiple infusions. Each animal had at least a 4-week interval between each infusion procedure.
NHPs were sedated with a mixture of ketamine (Ketaset, 7 mg/kg, IM) and xylazine (Rompun, 3 mg/kg, IM). After sedation, each animal was placed in a MRI-compatible stereotactic frame. The ear-bar and eye-bar measurements were recorded, and an intravenous line was established. […]

[5] = 6 cases, good distribution with leakage

For `CC(O)CN1CCN(CC(=O)[O-])CCN(CC(=O)[O-])CCN(CC(=O)[O-])CC1.[Gd+3]` (centres unmarked) [Gadoteridol], the “Vd in the brainstem, mean volume” value ([1]; 8 infusions) was 585.2±75.4 mm^3, the “percent of Vd in the brainstem vs total Vd in brainstem and thalamus” value ([1]; 100% in 7 cases, 95.6% in one case, listed as Gd) was 100% and 95.6% and the maximum distribution ([1]; brainstem, for Vi 212 μl) was “around 695.6 mm^3”. For the same compound, the distribution ratio ([1]; brainstem, maximum distribution at Vi 212 μl) was 328.1%, the “Vd in thalamus (leakage)” value ([1]; one brainstem case with leakage into thalamus at end of infusion) was 30.5 mm^3 and the “Vd in the thalamus, mean volume” value [2, 5] was 191.3±38.1 mm^3. For the same compound, the “percent of Vd in the thalamus, mean” value [2, 5] was 89.0%±1.3%, the “Vd of leakage, mean volume” value ([2]; 6 cases, leakage into WMT / lenticular fasciculus) was 24.3±7.0 mm^3 and the “Vd in the thalamus, mean volume” value ([2]; 8 cases with excellent distribution) was 405.6±66.6 mm^3. The “percent of Vd in the thalamus vs total Vd in thalamus and WMT” value ([2]; all 8 cases with excellent distribution) was 100%, the maximum distribution ([2]; thalamus, for Vi 158 μl) was “around 660.3 mm^3” and the distribution ratio ([2]; thalamus, maximum distribution at Vi 158 μl) was 417.9%. For the same compound, the “ratio of Vd/Vi, mean” value [3] was 4.68±0.33, the “final Vd in WMT, mean volume” value ([4]; blue zone, 4 cases) was 19.4±0.01 mm3 and the “infusion volume when leakage was first seen, mean” value ([4]; blue zone, 4 cases) was 6.9 ± 0.9 µL. For the same compound, the “final Vd in WMT, mean volume” value ([4]; red zone, 13 cases) was 66.8±0.01 mm^3, the “infusion volume when leakage was first seen, mean” value ([4]; red zone, 13 cases) was 7.9 ± 1.7 µL and the “Vd in the putamen, mean volume” value ([4]; step in blue zone, 4 cases) was 139.6±0.05 mm^3. For the same compound, the “Vd in the putamen, mean volume” value ([4]; step in green zone, 8 cases) was 116.4±0.04 mm^3 and the “Vd (putamen), mean volume” value ([4]; step in red zone, 13 cases) was 62.1±0.01 mm3.
